Measurements reported in ChEMBL document CHEMBL1909294, “Translating clinical findings into knowledge in drug safety evaluation--drug induced liver injury prediction system (DILIps)” (PLoS Comput Biol, 2011).

Legend:
Hepatotoxicity [1] = tested on: Hepatotoxicity;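 as to HepSE cholecystitis: Cholecystitis-related hepatic side effect score drawn from the DILIps (drug-induced liver injury prediction) training data set; call rule not given here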;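 as to HepSE cholelithiasis: hepatic side effect score for cholelithiasis, drawn from the DILIps training data for predicting drug-induced liver injury; call rule not given here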;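 as to HepSE cirrhosis: cirrhosis hepatic side effect score taken from the DILIps (drug-induced liver injury prediction) training set; call rule not given here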;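 as to HepSE hepatitis: Hepatitis-related hepatic side effect score taken from the training data of DILIps, a prediction system for drug-induced liver injury; call rule not given here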;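 as to HepSE jaundice: Jaundice-related hepatic side-effect score drawn from the training data of the DILIps (drug-induced liver injury prediction system); call rule not given here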; as to HepSE liver disease: call rule not given here;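 as to HepSE liver function tests abnormal: hepatic side effect score taken from the DILIps (drug-induced liver injury prediction system) training data, here covering abnormal liver function test findings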
Hepatotoxicity [2] = tested on: Hepatotoxicity; remark: listed apart in the source;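 as to HepSE cholecystitis: Cholecystitis-related hepatic side effect score drawn from the DILIps (drug-induced liver injury prediction) training data set; call rule not given here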;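 as to HepSE cirrhosis: cirrhosis hepatic side effect score taken from the DILIps (drug-induced liver injury prediction) training set; call rule not given here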;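 as to HepSE hepatitis: Hepatitis-related hepatic side effect score taken from the training data of DILIps, a prediction system for drug-induced liver injury; call rule not given here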;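 as to HepSE jaundice: Jaundice-related hepatic side-effect score drawn from the training data of the DILIps (drug-induced liver injury prediction system); call rule not given here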; as to HepSE liver disease: call rule not given here;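 as to HepSE liver function tests abnormal: hepatic side effect score taken from the DILIps (drug-induced liver injury prediction system) training data, here covering abnormal liver function test findings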
Hepatotoxicity [3] = tested on: Hepatotoxicity; remark: listed apart in the source;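 as to HepSE cholecystitis: Cholecystitis-related hepatic side effect score drawn from the DILIps (drug-induced liver injury prediction) training data set; call rule not given here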;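 as to HepSE cirrhosis: cirrhosis hepatic side effect score taken from the DILIps (drug-induced liver injury prediction) training set; call rule not given here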;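 as to HepSE hepatitis: Hepatitis-related hepatic side effect score taken from the training data of DILIps, a prediction system for drug-induced liver injury; call rule not given here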;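 as to HepSE jaundice: Jaundice-related hepatic side-effect score drawn from the training data of the DILIps (drug-induced liver injury prediction system); call rule not given here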; as to HepSE liver disease: call rule not given here;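 as to HepSE liver function tests abnormal: hepatic side effect score taken from the DILIps (drug-induced liver injury prediction system) training data, here covering abnormal liver function test findings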
Hepatotoxicity [4] = tested on: Hepatotoxicity; remark: listed apart in the source;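 as to HepSE cholecystitis: Cholecystitis-related hepatic side effect score drawn from the DILIps (drug-induced liver injury prediction) training data set; call rule not given here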;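 as to HepSE cirrhosis: cirrhosis hepatic side effect score taken from the DILIps (drug-induced liver injury prediction) training set; call rule not given here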;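 as to HepSE hepatitis: Hepatitis-related hepatic side effect score taken from the training data of DILIps, a prediction system for drug-induced liver injury; call rule not given here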;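 as to HepSE jaundice: Jaundice-related hepatic side-effect score drawn from the training data of the DILIps (drug-induced liver injury prediction system); call rule not given here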; as to HepSE liver disease: call rule not given here;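 as to HepSE liver function tests abnormal: hepatic side effect score taken from the DILIps (drug-induced liver injury prediction system) training data, here covering abnormal liver function test findings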
Hepatotoxicity [5] = tested on: Hepatotoxicity; remark: listed apart in the source; as to HepSE liver disease: call rule not given here
Hepatotoxicity [6] = tested on: Hepatotoxicity; remark: listed apart in the source; as to HepSE liver disease: call rule not given here
Hepatotoxicity [7] = tested on: Hepatotoxicity; remark: listed apart in the source
Hepatotoxicity [8] = tested on: Hepatotoxicity; remark: listed apart in the source
Hepatotoxicity [9] = tested on: Hepatotoxicity; remark: listed apart in the source
Hepatotoxicity [10] = tested on: Hepatotoxicity; remark: listed apart in the source
Hepatotoxicity [11] = tested on: Hepatotoxicity; remark: listed apart in the source
Hepatotoxicity [12] = tested on: Hepatotoxicity; remark: listed apart in the source
Hepatotoxicity [13] = tested on: Hepatotoxicity; remark: listed apart in the source
Hepatotoxicity [14] = tested on: Hepatotoxicity; remark: listed apart in the source

| Structure (SMILES) | HepSE_liver function tests abnormal (Hepatotoxicity [1]) | HepSE_liver disease (Hepatotoxicity [2]) | HepSE_cholecystitis (Hepatotoxicity [3]) | HepSE_hepatitis (Hepatotoxicity [4]) | HepSE_cirrhosis (Hepatotoxicity [5]) | HepSE_jaundice (Hepatotoxicity [6]) | HepSE_cholelithiasis (Hepatotoxicity [7]) | HepSE_hepatic necrosis (Hepatotoxicity [8]) | HepSE_hepatomegaly (Hepatotoxicity [9]) | HepSE_bilirubinemia (Hepatotoxicity [10]) | HepSE_hepatic failure (Hepatotoxicity [11]) | HepSE_elevated liver function tests (Hepatotoxicity [12]) | HepSE_Combined Scores (Hepatotoxicity [13]) | HepSE_liver fatty (Hepatotoxicity [14]) | further results |
| --- | --- | --- | --- | --- | --- | --- | --- | --- | --- | --- | --- | --- | --- | --- | --- |
| CCC(=O)[C@@]1(C)[C@H](C)C[C@H]2[C@@H]3CCC4=CC(=O)C=C[C@]4(C)[C@H]3[C@@H](O)C[C@@]21C [RIMEXOLONE] | 0 | 0 | 0 | 0 | 0 | 0 | 0 | 0 | 0 | 0 | 0 | 0 | 0 | 0 | – |
| O=P(O)(O)C(O)(Cc1cccnc1)P(=O)(O)O [RISEDRONIC ACID] | 0 | 0 | 0 | 0 | 0 | 0 | 0 | 0 | 0 | 0 | 0 | 0 | 0 | 0 | – |
| Cc1nc2n(c(=O)c1CCN1CCC(c3noc4cc(F)ccc34)CC1)CCCC2 [RISPERIDONE] | 0 | 0 | 1 | 1 | 0 | 1 | 1 | 0 | 1 | 1 | 1 | 0 | 8 | 1 | – |
| CCN(C)C(=O)Oc1cccc([C@H](C)N(C)C)c1 [RIVASTIGMINE] | 0 | 0 | 1 | 0 | 0 | 0 | 1 | 0 | 0 | 0 | 0 | 0 | 2 | 0 | – |
| CN(C)CCc1c[nH]c2ccc(Cn3cncn3)cc12 [RIZATRIPTAN] | 0 | 0 | 0 | 0 | 0 | 0 | 0 | 0 | 0 | 0 | 0 | 0 | 0 | 0 | – |
| C=CC[N+]1([C@H]2C[C@H]3[C@@H]4CC[C@H]5C[C@H](O)[C@@H](N6CCOCC6)C[C@]5(C)[C@H]4CC[C@]3(C)[C@H]2OC(C)=O)CCCC1 [ROCURONIUM] | 0 | 0 | 0 | 0 | 0 | 0 | 0 | 0 | 0 | 0 | 0 | 0 | 0 | 0 | – |
| CS(=O)(=O)c1ccc(C2=C(c3ccccc3)C(=O)OC2)cc1 [ROFECOXIB] | 0 | 0 | 1 | 1 | 0 | 1 | 0 | 0 | 0 | 0 | 1 | 0 | 4 | 0 | – |
| CCCN(CCC)CCc1cccc2c1CC(=O)N2 [ROPINIROLE] | 0 | 0 | 1 | 1 | 0 | 0 | 1 | 0 | 0 | 1 | 0 | 0 | 4 | 0 | – |
| CCCN1CCCC[C@H]1C(=O)Nc1c(C)cccc1C [ROPIVACAINE] | 0 | 0 | 0 | 0 | 0 | 1 | 0 | 0 | 0 | 0 | 0 | 0 | 1 | 0 | – |
| CN(CCOc1ccc(CC2SC(=O)NC2=O)cc1)c1ccccn1 (configuration not stated) [ROSIGLITAZONE] | 0 | 0 | 0 | 1 | 0 | 0 | 0 | 0 | 0 | 1 | 1 | 0 | 3 | 0 | – |
| CC(C)c1nc(N(C)S(C)(=O)=O)nc(-c2ccc(F)cc2)c1/C=C/[C@@H](O)C[C@@H](O)CC(=O)O [ROSUVASTATIN] | 0 | 0 | 0 | 1 | 0 | 1 | 0 | 0 | 0 | 0 | 0 | 0 | 2 | 0 | – |
| OCc1cc(C(O)CNCCCCCCOCCCCc2ccccc2)ccc1O (configuration not stated) [SALMETEROL] | 0 | 0 | 0 | 0 | 0 | 0 | 0 | 0 | 0 | 0 | 0 | 0 | 0 | 0 | – |
| C[C@H](O)[C@H](O)[C@H]1CNc2nc(N)[nH]c(=O)c2N1 [SAPROPTERIN] | 0 | 0 | 0 | 0 | 0 | 0 | 0 | 0 | 0 | 0 | 0 | 0 | 0 | 0 | – |
| C=CCC1(C(C)CCC)C(=O)NC(=O)NC1=O (configuration not stated) [SECOBARBITAL] | 0 | 0 | 0 | 0 | 0 | 0 | 0 | 0 | 0 | 0 | 0 | 0 | 0 | 0 | – |
| C#CCN(C)[C@H](C)Cc1ccccc1 [SELEGILINE] | 1 | 0 | 1 | 1 | 0 | 0 | 1 | 0 | 0 | 1 | 0 | 0 | 5 | 0 | – |
| Clc1ccc(C(Cn2ccnc2)OCc2csc3c(Cl)cccc23)c(Cl)c1 (configuration not stated) [SERTACONAZOLE] | 0 | 0 | 0 | 0 | 0 | 0 | 0 | 0 | 0 | 0 | 0 | 0 | 0 | 0 | – |
| CN[C@H]1CC[C@@H](c2ccc(Cl)c(Cl)c2)c2ccccc21 [SERTRALINE] | – | – | – | – | – | – | – | – | – | – | – | – | – | – | HepSE_liver function tests abnormal (Hepatotoxicity [1]; Liver): 0; HepSE_liver disease (Hepatotoxicity [2]; Liver): 0; HepSE_cholecystitis (Hepatotoxicity [3]; Liver): 0; HepSE_hepatitis (Hepatotoxicity [4]; Liver): 1; HepSE_cirrhosis (Hepatotoxicity [5]; Liver): 0; HepSE_jaundice (Hepatotoxicity [6]; Liver): 1; HepSE_cholelithiasis (Hepatotoxicity [7]; Liver): 0; HepSE_hepatic necrosis (Hepatotoxicity [8]; Liver): 0; HepSE_hepatomegaly (Hepatotoxicity [9]; Liver): 1; HepSE_bilirubinemia (Hepatotoxicity [10]; Liver): 0; HepSE_hepatic failure (Hepatotoxicity [11]; Liver): 1; HepSE_elevated liver function tests (Hepatotoxicity [12]; Liver): 0; HepSE_Combined Scores (Hepatotoxicity [13]; Liver): 4; HepSE_liver fatty (Hepatotoxicity [14]; Liver): 0 |
| FCOC(C(F)(F)F)C(F)(F)F [SEVOFLURANE] | 0 | 0 | 0 | 1 | 0 | 1 | 0 | 1 | 0 | 1 | 1 | 0 | 5 | 0 | – |
